# Legend:
# Assay type in all cases: cell-based
# [1] = tested on: human lung cancer cell line A549; assay: THP-1-mediated antibody-dependent phagocytic activity against A549; conditions: THP-1 coculture 2.5 hours
# Description: (§1) Specifically, in each combination test group (a romidepsin combination test group, a panobinostat combination test group, and a cisplatin combination test group), the indicated drug used in combination was applied to human cancer cells, and then the cancer cells were cocultured with human monocytic cells (THP-1) in the presence of the anti-CAPRIN-1 antibody, and the antibody-mediated phagocytic activity against the cancer cells by THP-1 was evaluated. […] The concentration of the drug used in combination was set to a concentration that decreased the proliferation rate of the cancer cells by about half at the completion of culture. As a control, a test group without a drug used in combination was established. […] Further, dead cells were stained with propidium iodide (PI) (final concentration: 0.1 μg/mL), followed by the measurement of fluorescence from the cells by flow cytometry. PI-positive dead cells were excluded from analysis. The human monocytic cells THP-1 recognize an antibody bound onto cancer cells and phagocytize the cancer cells. At that time, if the cancer cells have been stained with calcein-AM, the monocytic cells ingesting the cancer cells by phagocytosis also become positive to calcein-AM. Thus, the phagocytic activity in this evaluation system was calculated as the ratio (%) of APC-positive/calcein-AM-positive cells to the whole calcein-AM-positive population.
# [2] = tested on: human colon cancer cell line HCT116; assay: THP-1-mediated antibody-dependent phagocytic activity against HCT116; conditions: panobinostat combination test group (10 nM, 2 days) with anti-CAPRIN-1 antibody, THP-1 coculture 2.5 hours
# Description: as §1
# [3] = tested on: human ovarian cancer cell line TOV-21G; assay: THP-1-mediated antibody-dependent phagocytic activity against TOV-21G; conditions: panobinostat combination test group (30 nM, 2 days) with anti-CAPRIN-1 antibody, THP-1 coculture 1 hour
# Description: (§2) Specifically, in each combination test group (a romidepsin combination test group and a panobinostat combination test group), the indicated drug used in combination was applied to human cancer cells, and then the cancer cells were cocultured with human monocytic cells (THP-1) in the presence of the anti-CAPRIN-1 antibody, and the antibody-mediated phagocytic activity against the cancer cells by THP-1 was evaluated. […] As a control, a test group without a drug used in combination was established. […] Further, dead cells were stained with propidium iodide (PI) (final concentration: 0.1 μg/mL), followed by the measurement of fluorescence from the cells by flow cytometry. PI-positive dead cells were excluded from analysis. The human monocytic cells THP-1 recognize an antibody bound onto cancer cells and phagocytize the cancer cells. At that time, if the cancer cells have been stained with calcein-AM, the monocytic cells ingesting the cancer cells by phagocytosis also become positive to calcein-AM. Thus, the phagocytic activity in this evaluation system was calculated as the ratio (%) of APC-positive/calcein-AM-positive cells to the whole calcein-AM-positive population.
# [4] = tested on: human prostate cancer cell line DU145; assay: THP-1-mediated antibody-dependent phagocytic activity against DU145; conditions: THP-1 coculture 2.5 hours
# Description: as §1
# [5] = tested on: human breast cancer cell line MDA-MB-231; assay: THP-1-mediated antibody-dependent phagocytic activity against MDA-MB-231; conditions: panobinostat combination test group (30 nM, 2 days) with anti-CAPRIN-1 antibody, THP-1 coculture 1 hour
# Description: as §2
# [6] = tested on: human bile duct cancer cell line KKU-100; assay: THP-1-mediated antibody-dependent phagocytic activity against KKU-100; conditions: romidepsin combination test group (2 nM, 2 days) with anti-CAPRIN-1 antibody, THP-1 coculture 1 hour
# Description: as §2
# [7] = tested on: human uterus cancer cell line MFE-296; assay: THP-1-mediated antibody-dependent phagocytic activity against MFE-296; conditions: romidepsin combination test group (20 nM, 2 days) with anti-CAPRIN-1 antibody, THP-1 coculture 1 hour
# Description: as §2
# [8] = panobinostat combination test group (10 nM, 2 days) with anti-CAPRIN-1 antibody
# [9] = romidepsin combination test group (1 nM, 2 days) with anti-CAPRIN-1 antibody
smiles,measurement,setting,value
N.N.[Cl][Pt][Cl] [cisplatin],phagocytic activity against cancer cells,"[1]; cisplatin combination test group (20 μM, 2 days) with anti-CAPRIN-1 antibody",13%
"Cc1[nH]c2ccccc2c1CCNCc1ccc(/C=C/C(=O)NO)cc1 [panobinostat, (2E)-N-Hydroxy-3-[4-({[2-(2-methyl-TH-indol-3-yl)ethyl]amino}methyl)phenyl]prop-2-enamide]",phagocytic activity against cancer cells,[2],32%
same,phagocytic activity against cancer cells,[3],81%
same,phagocytic activity against cancer cells,[4]; [8],8%
same,phagocytic activity against cancer cells,[5],41%
same,phagocytic activity against cancer cells,[1]; [8],15%
"C/C=C1\NC(=O)[C@H]2CSSCC/C=C/[C@H](CC(=O)N[C@H](C(C)C)C(=O)N2)OC(=O)[C@H](C(C)C)NC1=O [romidepsin, (1S,4S,10S,16E,21R)-7-[(2Z)-ethylidene]-4,21-bis(1-methylethyl)-2-oxa-12,13-dithia-5,8,20,23-tetraazabicyclo[8.7.6]tricos-16-ene-3,6,9,19,22-pentone]",phagocytic activity against cancer cells,[6],≥ 14%
same,phagocytic activity against cancer cells,[4]; [9],8%
same,phagocytic activity against cancer cells,[7],≥ 27%
same,phagocytic activity against cancer cells,[1]; [9],29%
